Results reported in patent US20190134000A1, “COMPOUNDS TO PROMOTE NORMAL PROCESSING OF APP” (Buck Institute for Research on Aging, priority 2016, published 2019).
Values after ≈ are worked out from the molar mass of the structure shown. “Also recorded” adds a separate entry of the source. Like-named read-outs stand apart in the source and are kept apart here.

Legend:
sAPPα in SH-SY5Y cells = test: Primary screen, effect on sAPPα in SH-SY5Y cells (AlphaLISA); type: cell-based, human
From the text: (§1) Compound C41 was initially identified by screening a library of compounds in a series of steps. First compounds were screened in a primary screen to determine the effect on sAPPα in SH-SYSY cells (see, e.g., FIG. 4). Compounds that elicited an increase in sAPPα of at least 10% were subjected to a secondary screen in CHO-7W cells for their effect on sAPPα and Aβ (see, e.g., FIG. 5).

AD model mouse = test: In vivo study of C41 and F03 in an AD model mouse
From the text: Panel A: Novel object preference; Panel B: Novel location preference; Panel C: sAPPα.
Panel A: sAPPβ; Panel B: the sAPPα/sAPPβ ratio.
Compounds meeting the initial screening criteria were then subjected to in vivo testing.

[1] = reported; cited from earlier work
CYP2C9 = CYP2C9 (Homo sapiens, UniProt P11712); test: CYP inhibition screen CYP2C9; type: in vitro ADME; conditions: human, read-out: CYP2C9 inhibition
5-HT3 = target: T1, 5-HT3 (Homo sapiens, UniProt P46098); test: Target binding 5-HT3; conditions: target binding
T1 sequence (P46098 24-478): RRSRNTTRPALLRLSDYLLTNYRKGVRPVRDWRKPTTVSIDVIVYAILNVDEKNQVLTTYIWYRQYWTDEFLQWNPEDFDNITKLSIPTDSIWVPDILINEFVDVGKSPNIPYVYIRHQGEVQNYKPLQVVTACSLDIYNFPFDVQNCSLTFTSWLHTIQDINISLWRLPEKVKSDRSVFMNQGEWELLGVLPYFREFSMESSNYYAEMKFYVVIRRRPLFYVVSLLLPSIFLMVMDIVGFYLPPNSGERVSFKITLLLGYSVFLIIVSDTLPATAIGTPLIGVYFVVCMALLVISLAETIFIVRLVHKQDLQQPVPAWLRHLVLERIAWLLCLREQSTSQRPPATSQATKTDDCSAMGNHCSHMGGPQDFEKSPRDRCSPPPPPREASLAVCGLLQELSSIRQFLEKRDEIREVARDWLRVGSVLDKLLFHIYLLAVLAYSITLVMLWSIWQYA

[2] = tested on: sAPPα, Aβ1-42 in CHO-7W cells; test: Secondary screen, sAPPα and Aβ in CHO-7W cells; type: cell-based
From the text: as §1

CYP2D6 = CYP2D6 (Homo sapiens, UniProt P10635); test: CYP inhibition screen CYP2D6; type: in vitro ADME; conditions: human, read-out: CYP2D6 inhibition
CYP2C19 = CYP2C19 (Homo sapiens, UniProt P33261); test: CYP inhibition screen CYP2C19; type: in vitro ADME; conditions: human, read-out: CYP2C19 inhibition
in vitro = test: in vitro
Protocol: The second batch of C41 was tested for plasma protein binding, ADME-tox screening (microsomal intrinsic clearance), and ADME-tox screening (CYP inhibition screen). PK in rats was determined to determine a dose of non-GLP Pharm-Tox screening. Additionally, acute toxicity in rats (pre-subchronic toxicity) and non-GLP subchronic toxicity was determined.

APP = APP (Homo sapiens, UniProt P05067); test: Target binding APP
α7 = α7 (Homo sapiens, UniProt P36544); test: Target binding α7
AD mouse model = test: Synaptic load, synaptophysin labeling of hippocampus; type: in vivo
Protocol: FIG. 16 illustrates mechanistic confirmation studies for determination of synaptic load.
Mechanistic confirmation studies for determination of synaptic load were performed using antibody-labeling of synaptophysin with a green fluorescent tag. […] The improvements in NLR and NOR may be correlated to the restoration of synaptic load, increases in sAPPα or the sAPPα/sAPPβ ratio; increases in the sAPPα/Aβ1-42 ratio; decreases in the p-tau/tau ratio, and/or decreases in APPneo (c-terminal cleavage).

CYP1A2 = target: T2, CYP1A2 (Homo sapiens, UniProt P05177); test: CYP inhibition screen CYP1A2; type: in vitro ADME; conditions: human, read-out: CYP1A2 inhibition
T2 sequence (P05177 1-516): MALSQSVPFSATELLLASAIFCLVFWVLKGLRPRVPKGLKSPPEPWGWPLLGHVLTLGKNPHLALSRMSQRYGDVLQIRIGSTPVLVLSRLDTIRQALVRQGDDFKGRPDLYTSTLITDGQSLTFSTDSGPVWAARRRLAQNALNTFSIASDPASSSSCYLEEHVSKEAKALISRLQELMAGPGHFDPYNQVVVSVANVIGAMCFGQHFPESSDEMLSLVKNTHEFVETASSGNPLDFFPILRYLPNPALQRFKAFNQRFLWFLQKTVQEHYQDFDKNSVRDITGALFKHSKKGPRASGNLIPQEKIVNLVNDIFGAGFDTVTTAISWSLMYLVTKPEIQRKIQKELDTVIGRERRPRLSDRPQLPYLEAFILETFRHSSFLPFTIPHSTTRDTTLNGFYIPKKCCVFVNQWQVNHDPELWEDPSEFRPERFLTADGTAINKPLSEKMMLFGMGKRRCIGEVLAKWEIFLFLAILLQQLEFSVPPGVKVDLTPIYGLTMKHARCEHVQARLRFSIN

CYP3A4 = CYP3A4 (Homo sapiens, UniProt P08684); test: CYP inhibition screen CYP3A4; type: in vitro ADME; conditions: human
[3] = dog, microsomes, NADPH-Dependent CLint
[4] = dog, microsomes, NADPH-Free CLint
[5] = rat, microsomes, NADPH-Dependent CLint
[6] = rat, microsomes, NADPH-Free CLint
[7] = midazolam, read-out: CYP3A4 midazolam inhibition
[8] = testosterone, read-out: CYP3A4 testosterone inhibition

CYP3A4, sequence (P08684 whole entry): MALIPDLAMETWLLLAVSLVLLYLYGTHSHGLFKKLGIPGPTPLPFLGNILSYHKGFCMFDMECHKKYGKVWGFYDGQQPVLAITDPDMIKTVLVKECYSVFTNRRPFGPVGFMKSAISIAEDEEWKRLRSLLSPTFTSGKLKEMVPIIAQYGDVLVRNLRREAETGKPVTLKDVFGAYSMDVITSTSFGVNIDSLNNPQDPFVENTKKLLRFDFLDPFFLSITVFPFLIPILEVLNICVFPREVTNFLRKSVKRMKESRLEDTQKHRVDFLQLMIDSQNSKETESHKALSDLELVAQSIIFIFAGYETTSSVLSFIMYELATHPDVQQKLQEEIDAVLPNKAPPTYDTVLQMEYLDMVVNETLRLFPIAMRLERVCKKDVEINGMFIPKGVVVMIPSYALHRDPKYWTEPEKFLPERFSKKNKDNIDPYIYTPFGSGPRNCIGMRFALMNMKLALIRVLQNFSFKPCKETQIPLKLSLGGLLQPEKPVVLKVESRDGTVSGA
CYP2D6, sequence (P10635 whole entry): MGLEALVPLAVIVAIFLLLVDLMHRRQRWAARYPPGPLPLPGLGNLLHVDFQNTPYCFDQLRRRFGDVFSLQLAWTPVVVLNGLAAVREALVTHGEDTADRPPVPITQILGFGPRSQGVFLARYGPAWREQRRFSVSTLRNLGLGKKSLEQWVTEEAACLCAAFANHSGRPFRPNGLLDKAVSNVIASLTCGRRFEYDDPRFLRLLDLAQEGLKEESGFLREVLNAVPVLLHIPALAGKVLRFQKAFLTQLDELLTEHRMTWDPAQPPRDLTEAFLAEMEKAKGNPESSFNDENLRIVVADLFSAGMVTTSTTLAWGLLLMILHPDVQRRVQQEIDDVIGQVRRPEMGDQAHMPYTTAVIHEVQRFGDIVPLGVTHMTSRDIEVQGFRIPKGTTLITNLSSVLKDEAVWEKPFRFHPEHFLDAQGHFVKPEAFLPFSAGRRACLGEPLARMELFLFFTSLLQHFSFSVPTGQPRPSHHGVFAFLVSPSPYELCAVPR
CYP2C9, sequence (P11712 whole entry): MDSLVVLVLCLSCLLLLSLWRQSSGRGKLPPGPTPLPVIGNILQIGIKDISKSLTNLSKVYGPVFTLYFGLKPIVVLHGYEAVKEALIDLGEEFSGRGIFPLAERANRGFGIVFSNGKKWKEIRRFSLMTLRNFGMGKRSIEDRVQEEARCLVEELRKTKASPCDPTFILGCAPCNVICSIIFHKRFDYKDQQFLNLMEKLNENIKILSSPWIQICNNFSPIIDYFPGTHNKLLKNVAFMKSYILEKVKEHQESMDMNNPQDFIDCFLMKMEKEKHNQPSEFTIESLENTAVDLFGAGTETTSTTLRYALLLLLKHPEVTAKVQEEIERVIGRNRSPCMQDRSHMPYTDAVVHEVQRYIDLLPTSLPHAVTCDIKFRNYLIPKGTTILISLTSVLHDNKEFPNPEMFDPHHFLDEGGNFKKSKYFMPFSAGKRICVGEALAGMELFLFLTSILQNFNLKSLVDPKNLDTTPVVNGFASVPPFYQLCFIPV
CYP2C19, sequence (P33261 whole entry): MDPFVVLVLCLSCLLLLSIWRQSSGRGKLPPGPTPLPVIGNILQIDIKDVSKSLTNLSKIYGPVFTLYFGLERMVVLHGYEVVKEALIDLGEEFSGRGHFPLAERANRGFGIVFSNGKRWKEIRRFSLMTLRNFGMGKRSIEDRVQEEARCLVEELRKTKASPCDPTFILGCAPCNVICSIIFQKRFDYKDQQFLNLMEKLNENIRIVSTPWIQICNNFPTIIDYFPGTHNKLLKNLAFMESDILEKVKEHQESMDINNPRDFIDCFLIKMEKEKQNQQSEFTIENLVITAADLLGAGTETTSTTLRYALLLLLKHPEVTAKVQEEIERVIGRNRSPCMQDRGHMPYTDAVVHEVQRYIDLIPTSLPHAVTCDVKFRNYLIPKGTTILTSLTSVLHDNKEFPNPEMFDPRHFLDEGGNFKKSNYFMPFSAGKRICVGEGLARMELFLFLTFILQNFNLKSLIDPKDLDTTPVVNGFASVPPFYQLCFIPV
APP, sequence (P05067 18-770, species assumed): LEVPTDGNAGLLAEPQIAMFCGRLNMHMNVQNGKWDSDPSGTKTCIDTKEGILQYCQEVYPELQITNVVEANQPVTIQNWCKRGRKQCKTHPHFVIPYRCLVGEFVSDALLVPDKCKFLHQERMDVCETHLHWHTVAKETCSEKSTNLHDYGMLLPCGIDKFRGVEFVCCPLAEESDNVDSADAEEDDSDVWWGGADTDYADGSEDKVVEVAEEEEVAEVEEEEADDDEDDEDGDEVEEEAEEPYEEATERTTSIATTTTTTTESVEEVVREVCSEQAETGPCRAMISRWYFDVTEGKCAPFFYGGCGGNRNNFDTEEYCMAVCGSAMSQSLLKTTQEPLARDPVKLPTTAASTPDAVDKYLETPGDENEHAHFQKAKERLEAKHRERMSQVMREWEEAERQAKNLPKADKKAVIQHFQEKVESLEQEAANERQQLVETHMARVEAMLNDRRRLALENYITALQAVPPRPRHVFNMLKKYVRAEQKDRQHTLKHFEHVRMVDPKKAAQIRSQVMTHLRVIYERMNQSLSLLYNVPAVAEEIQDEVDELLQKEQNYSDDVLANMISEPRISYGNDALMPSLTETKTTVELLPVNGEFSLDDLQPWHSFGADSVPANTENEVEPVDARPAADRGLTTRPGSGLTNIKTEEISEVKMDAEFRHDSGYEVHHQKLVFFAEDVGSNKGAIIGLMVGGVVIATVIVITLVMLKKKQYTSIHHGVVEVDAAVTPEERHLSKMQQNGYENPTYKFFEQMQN
α7, sequence (P36544 23-502): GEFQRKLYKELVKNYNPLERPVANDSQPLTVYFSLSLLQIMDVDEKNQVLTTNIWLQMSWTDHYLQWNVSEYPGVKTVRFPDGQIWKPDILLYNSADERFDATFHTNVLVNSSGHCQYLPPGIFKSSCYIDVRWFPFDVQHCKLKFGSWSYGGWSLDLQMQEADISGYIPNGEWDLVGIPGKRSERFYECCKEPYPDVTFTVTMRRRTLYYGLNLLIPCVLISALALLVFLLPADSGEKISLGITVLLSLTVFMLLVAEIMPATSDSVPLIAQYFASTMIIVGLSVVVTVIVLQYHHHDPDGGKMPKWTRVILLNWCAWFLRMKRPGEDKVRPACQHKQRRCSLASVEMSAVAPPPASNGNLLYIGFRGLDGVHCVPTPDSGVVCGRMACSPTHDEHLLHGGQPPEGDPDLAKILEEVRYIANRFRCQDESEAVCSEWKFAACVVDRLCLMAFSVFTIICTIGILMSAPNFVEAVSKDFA

SMILES: CN1C2CC[C@H]1C[C@@H](OC(=O)c1c[nH]c3cc(F)ccc13)C2.Cl [C41 HCl, (1R,3R,5S)-8-methyl-8-azabicyclo[3.2.1]octan-3-yl 6-fluoro-1H-indole-3-carboxylate hydrochloride]
- effect on sAPPα in SH-SY5Y cells (sAPPα in SH-SY5Y cells; 1 μm, 24 hours): increase sAPPα similar to C41 (first batch) and to F03

SMILES: CN1[C@@H]2CC[C@H]1C[C@@H](OC(=O)c1c[nH]c3ccccc13)C2 [Compound F03, tropisetron, reference compound]
- Aβ40/42 ratio in vivo (AD model mouse): not changed
- sAPPα in vivo (AD model mouse): increased significantly
- sAPPα/Aβ1-42 ratio in vivo (AD model mouse): not increased
- Plasma binding [1]: 70%
- inhibition at 10 µM (CYP2C9; 10 μM): 15.9%
- inhibition at 30 µM (CYP2C9; 30 μM): 23.3%
- solubility (Solubility in water): 100 mM (≈ 28.4 mg/mL)
- Target 5-HT3 (5-HT3): 3 nM
- Secondary Screen (CHO-7W) sAPPα ([2]; ↑ increase): ↑>10%
- Secondary Screen (CHO-7W) sAppα/Aβ ([2]; ↑ increase of ratio): ↑>30%
- Secondary Screen (CHO-7W) Aβ1-42 ([2]; ↓ decrease): ↓>10%
- inhibition at 10 µM (CYP2D6; 10 μM): 17.4%
- inhibition at 30 µM (CYP2D6; 30 μM): 38%
- Primary Screen (SH-SY5Y) sAPPα (sAPPα in SH-SY5Y cells; ↑ increase): ↑>10%
- inhibition at 10 µM (CYP2C19; 10 μM): 6.4%
- inhibition at 30 µM (CYP2C19; 30 μM): 0%
- microsomal CLint at 1 μM (in vitro; [3]): 43.5 µL/min/mg
- half-life at 1 μM (in vitro; dog, microsomes, NADPH-Dependent T1/2): 0.885 h
- microsomal CLint at 1 μM (in vitro; [4]): < 9.6 µL/min/mg
- half-life at 1 μM (in vitro; dog, microsomes, NADPH-Free T1/2): > 4 h
- half-life at 1 μM (in vitro; human, microsomes): > 4 h
- microsomal CLint at 1 μM (in vitro; human, microsomes): < 9.6 µL/min/mg
- NADPH-Free CLint (in vitro; human, microsomes, 1 μM): <9.6 µL/min/mg
- NADPH-Free T1/2 (in vitro; human, microsomes, 1 μM): >4 h
- microsomal CLint at 1 μM (in vitro; [5]): 367 µL/min/mg
- half-life at 1 μM (in vitro; rat, microsomes, NADPH-Dependent T1/2): 0.105 h
- microsomal CLint at 1 μM (in vitro; [6]): < 9.6 µL/min/mg
- half-life at 1 μM (in vitro; rat, microsomes, NADPH-Free T1/2): > 4 h
- Target APP (APP): 1 to 10 µM
- Target α7 (α7): 450 nM
- synaptic load / synaptic density in hippocampus (AD mouse model): restore synaptic density; also recorded: restored synaptic load
- inhibition at 10 µM (CYP1A2; 10 μM): 1%
- inhibition at 30 µM (CYP1A2; 30 μM): 1%
- inhibition at 10 µM (CYP3A4; [7]): 0%
- inhibition at 10 µM (CYP3A4; [8]): 0.63%
- inhibition at 30 µM (CYP3A4; [7]): 6.6%
- inhibition at 30 µM (CYP3A4; [8]): 10.5%

SMILES: CC(C)NCC(O)COc1cccc2ccccc12 (centres unmarked) [propranolol, reference compound]
- Mean Plasma Fraction Bound (in vitro; human, plasma): 81.6%
- fraction unbound (in vitro; human, plasma): 0.184

SMILES: CC(=O)CC(c1ccccc1)c1c(O)c2ccccc2oc1=O (centres unmarked) [warfarin]
- microsomal CLint at 1 μM (in vitro; [3]): < 9.6 µL/min/mg
- microsomal CLint at 1 μM (in vitro; [4]): < 9.6 µL/min/mg
- recovery (in vitro; human): 99.7%
- microsomal CLint at 1 μM (in vitro; human, microsomes): < 9.6 µL/min/mg
- NADPH-Free CLint (in vitro; human, microsomes, 1 μM): <9.6 µL/min/mg
- microsomal CLint at 1 μM (in vitro; [5]): < 9.6 µL/min/mg
- microsomal CLint at 1 μM (in vitro; [6]): < 9.6 µL/min/mg
